Laboratory results reported in ChEMBL document CHEMBL4651402, “Screening of ~5500 FDA-approved drugs and clinical candidates for anti-SARS-CoV-2 activity” (2021).
Square brackets hold non-standard residues; d marks the D form. Peptide text beside a SMILES is read from it. pGlu = O=C1CC[C@@H](C(=O)O)N1; Thz = O=C(O)[C@@H]1CSCN1

Tested on: SARS-CoV-2
Assay: microbe, parasite or virus in culture
Conditions: Severe acute respiratory syndrome coronavirus 2, Vero C1008, 48 h

Row | SMILES | IC50 [µM] | IC50 (read-out: pIC50 (converted)) [µM]
1 | COc1cccc(OC)c1-c1cc(C(=O)NC2(C(=O)O)C3CC4CC(C3)CC2C4)nn1-c1ccnc2cc(Cl)ccc12 (stereo unspecified) [REMINERTANT] | > 20 | > 20
2 | NCC(=O)c1ccccc1 | > 20 | > 20
3 | CC1(C)S[C@@H]2[C@H](NC(=O)[C@H](N)c3ccc(O)cc3)C(=O)N2[C@H]1C(=O)O [AMOXICILLIN] | > 20 | > 20
4 | O=c1[nH]c(=O)c(Cc2cccc(C(F)(F)F)c2)c([C@H]2CC[C@H](c3ccccc3)CC2)[nH]1 [MIRICORILANT] | > 20 | > 20
5 | CCOP(=S)(OCC)Oc1ccc2c(C)c(Cl)c(=O)oc2c1 [COUMAPHOS] | > 20 | > 20
6 | CCCC[N+]1(C)[C@@H]2C[C@@H](OC(=O)[C@H](CO)c3ccccc3)C[C@H]1[C@@H]1O[C@@H]12 (stereo partly specified) [BUTYLSCOPOLAMINE] | > 20 | > 20
7 | CC(C)(C)c1ccc(C(=O)CCCN2CCC(OC(c3ccccc3)c3ccccc3)CC2)cc1 [EBASTINE] | > 20 | > 20
8 | CCc1nc(-c2cccc(C)c2)c(-c2ccnc(NC(=O)c3ccccc3)c2)s1 [TAK-715] | > 20 | > 20
9 | Oc1c(Cl)cc(Cl)cc1Sc1cc(Cl)cc(Cl)c1O [BITHIONOL] | > 20 | > 20
10 | NC(=O)c1cc([N+](=O)[O-])cc([N+](=O)[O-])c1 [NITROMIDE] | > 20 | > 20
11 | CC(=O)N1C[C@H](O)C[C@H]1C(=O)N[C@@H](CCCN=C(N)N)C(=O)c1nc2ccccc2s1 | > 20 | > 20
12 | CC[C@H]1OC(=O)[C@H](C)[C@@H](O[C@H]2C[C@@](C)(OC)[C@@H](O)[C@H](C)O2)[C@H](C)[C@@H](O[C@@H]2O[C@H](C)C[C@H](N(C)C)[C@H]2O)[C@](C)(OC)C[C@@H](C)C(=O)[C@H](C)[C@@H](O)[C@]1(C)O [CLARITHROMYCIN] | > 20 | > 20
13 | C=C1C[C@]23C[C@@]1(O)CC[C@H]2[C@@]12C=C[C@H](O)[C@](C)(C(=O)O1)[C@H]2[C@@H]3C(=O)O [GIBBERELLIN GA3] | > 20 | > 20
14 | CC(C)OC(=O)[C@H](C)NP(=O)(OC[C@H]1O[C@@H](n2ccc(=O)[nH]c2=O)[C@](C)(F)[C@@H]1O)Oc1ccccc1 (stereo partly specified) | > 20 | > 20
15 | Cc1sc2c(c1C)C(c1ccc(Cl)cc1)=N[C@@H](CC(=O)Nc1ccc(O)cc1)c1nnc(C)n1-2 [BIRABRESIB] | > 20 | > 20
16 | CCN(C(=O)c1c(O)c2c(Cl)cccc2n(C)c1=O)c1ccccc1 [LAQUINIMOD] | > 20 | > 20
17 | CCN(Cc1ccccc1)C(=O)Cn1c(=O)n(C)c2cnc(-c3ccccc3)nc21 | > 20 | > 20
18 | O=C1CC[C@@H](C(=O)N2CSC[C@H]2C(=O)O)N1 [PIDOTIMOD] ([pGlu]-[Thz]-OH) | > 20 | > 20
19 | CN(C)CCCOC1CC(C)(C)N(C)C(C)(C)C1 [PEMERID] | > 20 | > 20
20 | CN1C(C(=O)Nc2nccs2)=C(O)c2ccccc2S1(=O)=O [SUDOXICAM] | > 20 | > 20

Row | SMILES | IC50 [µM] | IC50 (read-out: pIC50 (converted)) [µM]
21 | COc1cc2[nH]c(C)c(CCN3CCN(c4ccccc4)CC3)c2cc1OC [OXYPERTINE] | > 20 | > 20
22 | CCn1c(=O)c2c(nc(/C=C/c3ccc(OC)c(OC)c3)n2C)n(CC)c1=O [ISTRADEFYLLINE] | > 20 | > 20
23 | CC1=Nc2ccc(Cl)cc2S(=O)(=O)N1 [DIAZOXIDE] | > 20 | > 20
24 | O=C(O)C(=O)CBr [BROMOPYRUVATE] | > 20 | > 20
25 | CC(CN(C)C)C(C)(O)Cc1ccc(Cl)cc1 (stereo unspecified) [CLOBUTINOL] | > 20 | > 20
26 | NC(CC(=O)NO)C(=O)O (stereo unspecified) | > 20 | > 20
27 | Cn1nnnc1SCC1=C(C(=O)O)N2C(=O)[C@@H](NC(=O)[C@H](O)c3ccccc3)[C@H]2SC1 [CEFAMANDOLE] | > 20 | > 20
28 | COc1ccc(S(=O)(=O)Nc2cccnc2Nc2ccc(O)cc2)cc1 [ABT-751] | > 20 | > 20
29 | CC1(C)O[C@@H]2C[C@H]3[C@@H]4C[C@H](F)C5=CC(=O)C=C[C@]5(C)[C@H]4[C@@H](O)C[C@]3(C)[C@]2(C(=O)CO)O1 [FLUNISOLIDE] | > 20 | > 20
30 | CCCCCCCC(=O)N[C@H](CN1CCCC1)[C@H](O)c1ccc2c(c1)OCCO2 | > 20 | > 20
31 | C/C=C1/C[N+]2(C)CCC34C(=C(C=O)[C@H]1C[C@@H]32)Nc1ccccc14 (stereo partly specified) | > 20 | > 20
32 | CNC(=O)[C@@H](NC(=O)[C@H](CC(C)C)[C@H](O)C(=O)NO)C(C)(C)C | > 20 | > 20
33 | Cc1nnnn1N=Cc1ccc(O)c(C(c2ccc(O)cc2)c2cc(C=Nn3nnnc3C)ccc2O)c1 (stereo unspecified) [VP-14637] | > 20 | > 20
34 | C=C[C@H]1CN2CC[C@H]1C[C@H]2[C@H](O)c1ccnc2ccccc12 [CINCHONIDINE] | > 20 | > 20
35 | CC1(C)CC(O)CC(C)(C)N1[O] [TEMPOL] | > 20 | > 20
36 | COC(=O)Nc1nc2cc(C(=O)c3ccc(F)cc3)ccc2[nH]1 [FLUBENDAZOLE] | > 20 | > 20
37 | CN(C)CCCCCCN(C)C | > 20 | > 20
38 | CC(C)(C)C(=O)OCOC(=O)[C@@H]1N2C(=O)[C@@H](/N=C/N3CCCCCC3)[C@H]2SC1(C)C [AMDINOCILLIN PIVOXIL] | > 20 | > 20
39 | NC[C@@H]1O[C@H](O[C@H]2[C@@H](O)[C@H](O[C@@H]3[C@@H](O)[C@H](N)C[C@H](N)[C@H]3O[C@H]3O[C@H](CO)[C@@H](O)[C@H](O)[C@H]3N)O[C@@H]2CO)[C@H](N)[C@@H](O)[C@@H]1O [PAROMOMYCIN] | > 20 | > 20
40 | CN[C@@H]1[C@H](O[C@H]2[C@H](O[C@H]3[C@H](O)[C@@H](O)[C@H](N=C(N)N)[C@@H](O)[C@@H]3N=C(N)N)O[C@@H](C)[C@]2(O)C=O)O[C@@H](CO)[C@H](O)[C@H]1O [STREPTOMYCIN] | > 20 | > 20

Row | SMILES | IC50 [µM] | IC50 (read-out: pIC50 (converted)) [µM]
41 | Nc1ccn([C@@H]2CS[C@H](CO)O2)c(=O)n1 [LAMIVUDINE] | > 50.1 | > 50.1
42 | NC(=O)OCC(COC(N)=O)c1ccccc1 [FELBAMATE] | > 20 | > 20
43 | C[C@]1(O)CCC2C3CC[C@H]4CC(=O)/C(=C/O)C[C@]4(C)C3CC[C@@]21C (stereo partly specified) | > 20 | > 20
44 | CCOc1ccc(Cc2cc([C@@H]3O[C@H](CO)[C@@H](O)[C@H](O)[C@H]3O)ccc2Cl)cc1 [DAPAGLIFLOZIN] | > 20 | > 20
45 | COc1cc2c(cc1OC)[C@@H]1C(=O)c3ccc4c(c3O[C@@H]1CO2)CC(C(C)C)O4 (stereo partly specified) [DIHYDROROTENONE] | > 20 | > 20
46 | CC12CCC(C[N+](C)(CCC[N+](C)(C)C)C1)C2(C)C (stereo unspecified) | > 20 | > 20
47 | CC[C@]12CCCN3CCc4c(n(c5ccccc45)[C@@](O)(C(=O)OC)C1)[C@@H]32 [VINCAMINE] | > 20 | > 20
48 | C=CC(=O)N(C)CCOc1c(N)ncnc1-c1cc(F)cc(NC(=O)c2ccc(C3CC3)cc2F)c1C [REMIBRUTINIB] | > 20 | > 20
49 | O=C(O)COc1nn(Cc2ccccc2)c2ccccc12 [BENDAZAC] | > 20 | > 20
50 | NC(=O)c1[nH]cnc1N | > 20 | > 20
51 | CCC1(CC)C(=O)NC(=O)N(C)C1=O [METHARBITAL] | > 20 | > 20
52 | O=C(O)[C@@H]1C[C@@H](C2CCCCC2)CN1C(=O)CP(=O)(O)CCCCc1ccccc1 [FOSINOPRILAT] | > 20 | > 20
53 | C[C@@H](NCCc1ccc(O)cc1)[C@@H](O)c1ccc(O)cc1 [rel-RITODRINE] | > 20 | > 20
54 | Cc1cccc(N2CCN(CCCOc3ccc4ccc(O)nc4c3)CC2)c1C | > 20 | > 20
55 | CC(C)(C)OC(=O)N1CCC[C@H]1CO | > 20 | > 20
56 | C[C@H](N)[C@H](O)c1cccc(O)c1 [METARAMINOL] | > 20 | > 20
57 | CC[C@H](C)C(=O)O[C@H]1C[C@@H](C)C=C2C=C[C@H](C)[C@H](CC[C@@H]3C[C@@H](O)CC(=O)O3)[C@H]21 [LOVASTATIN] | > 20 | > 20
58 | O=C(O)CCCCCCCC(=O)O [AZELAIC ACID] | > 20 | > 20
